Experimental data published in BindingDB's records for PubMed 10411588 (The University of Calgary, 1999).
Where a SMILES comes first, the peptide text is derived from it.

target: T1, Proteinase-activated receptor 2 (Rattus norvegicus, UniProt Q63645)
T1 sequence (Q63645 whole entry): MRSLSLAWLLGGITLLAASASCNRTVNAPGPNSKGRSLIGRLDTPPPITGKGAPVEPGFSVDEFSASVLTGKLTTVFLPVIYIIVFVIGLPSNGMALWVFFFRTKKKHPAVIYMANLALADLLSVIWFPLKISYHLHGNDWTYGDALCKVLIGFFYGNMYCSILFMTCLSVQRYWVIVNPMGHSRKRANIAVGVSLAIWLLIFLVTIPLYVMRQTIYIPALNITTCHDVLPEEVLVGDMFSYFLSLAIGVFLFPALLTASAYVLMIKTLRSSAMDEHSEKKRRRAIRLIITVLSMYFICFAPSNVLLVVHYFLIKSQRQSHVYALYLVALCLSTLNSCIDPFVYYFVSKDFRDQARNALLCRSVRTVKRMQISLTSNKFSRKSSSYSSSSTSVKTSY

| Ki | SMILES |
| --- | --- |
| 2300 nM | CC(C)C[C@H](NC(=O)[C@H](CC(C)C)NC(=O)[C@H](Cc1ccccc1)NC(=O)[C@@H](N)CO)C(=O)N[C@@H](CCCN=C(N)N)C(N)=O [SFLLR-NH2] |
| > 10000 nM | CC(C)C[C@H](NC(=O)[C@H](CC(C)C)NC(=O)[C@H](Cc1ccccc1)NC(=O)[C@@H](N)CO)C(=O)N[C@@H](CCCN=C(N)N)C(=O)O [SFLLR-OH] |
| 260 nM | CC[C@H](C)[C@H](NC(=O)[C@H](CC(C)C)NC(=O)C=Cc1ccccc1)C(=O)NCC(=O)N[C@@H](CCCNC(=N)N)C(=O)N[C@@H](CC(C)C)C(=O)N[C@@H](CCCN)C(N)=O [trans-cinnamoyl-LIGRLO-NH2] (HELM PEPTIDE1{[O=C(C=Cc1ccccc1)[*:2]].L.I.G.R.L.[Orn].[am]}$$$$V2.0) |

| SMILES | Ki |
| --- | --- |
| CC[C@H](C)[C@H](NC(=O)[C@H](CC(C)C)NC(=O)[C@@H](N)CO)C(=O)NCC(=O)N[C@@H](CCCNC(=N)N)C(=O)N[C@@H](CC(C)C)C(N)=O [CAS_171436-38-7] (H-SLIGRL-NH2) | 260 nM |
